Laboratory results taken from US20140057978A1, “NOVEL USE OF BENZOFURANYLSULFONATES” (priority 2011, published 2014).

Tests used:
[1] = test system: embryonic DRG (Dorsal Root Ganglion) explants; assay: Axonal growth in embryonic DRG explants; format: cell-based, rat; conditions: 22 hours in vitro
Experimental: (§1) In vitro experiments with a benzofuranylsulfonate to improve axonal growth and Schwann cell expansion in embryonic DRG (Dorsal Root Ganglion) explants of rats.
(§2) Outgrowth studies with Methanesulfonic acid 2-(2,4-dichloro-benzoyl)-3-ureido-benzofuran-6-yl ester or the vehicle were performed on embryonic neural tissue. DRGs of thoracic, lumbar, and sacral levels were prepared from Wistar rat embryos E18-20 and processed in ice cold 0.6% glucose in PBS. Harvested DRGs were freed from attaching nerve fibres, dissected, and transferred onto PDL- and laminin-coated glass coverlips. To avoid cluster formation, a maximum of two DRG explants were transferred onto a single glass coverslip. Following an initial attachment phase, the pre-incubation medium was replaced by fully supplemented growth medium spiked with the test item (Methanesulfonic acid 2-(2,4-dichloro-benzoyl)-3-ureido-benzofuran-6-yl ester groups 2 and 3) or vehicle (DMF, group 1) and incubated at 37° C./10% CO2 for additional 22 hours in vitro. Following 22 hours in vitro, the DRG explants were fluorescently labelled and axonal growth and Schwann cell expansion were quantitatively assessed.
(§3) Group 1: Fully supplemented growth medium with 0.1% vehicle. Group 2: Fully supplemented growth medium with 0.1% vehicle and Methanesulfonic acid 2-(2,4-dichloro-benzoyl)-3-ureido-benzofuran-6-yl ester at a final concentration of 0.1 μM. Group 3: Fully supplemented growth medium with 0.1% vehicle and Methanesulfonic acid 2-(2,4-dichloro-benzoyl)-3-ureido-benzofuran-6-yl ester at a final concentration of 1 μM.
Morphometric data are presented as the mean values and standard deviations of the axonal growth area in μm^2.

[2] = test system: Schwann cells of embryonic DRG explants; assay: Schwann cell expansion in embryonic DRG explants; format: cell-based, rat; conditions: for Schwann cell expansion (numbers of Schwann cells outside the DRG explant core): 22 hours in vitro, versus vehicle
Experimental: as §1, §2, §3
Data are presented as the mean values and standard deviations of the numbers of Schwann cells outside the DRG explant core.

[3] = test system: severe contusive SCI in Lewis rats; assay: BBB open field locomotor rating scale after severe spinal cord contusion injury; format: in vivo; conditions: rat, oral
Experimental: Oral treatment with a benzofuranylsulfonate after severe spinal cord contusion injury in the rat.
Thirteen week-old female Lewis rats (Charles River, Sulzfeld Germany) were housed under a 12:12 h dark/light regime and allowed free access to water and food. After one week of habituation the animals underwent general anesthesia with a mixture of isoflurane and air (induction: 5% isoflurane, maintenance: 2.2% isofluorane). A Th10 laminectomy was performed without rupturing the dura and a severe contusive SCI (25 gcm NYU/MASCIS II impactor) (Gruner, 1992) was induced. After suturing muscle and skin, a subcutaneous (s.c.) injection of 5 ml of Ringers Lactate was given. Bladders were emptied manually 2 times a day until spontaneous voiding returned (usually within 1 week). The lesion severity was verified by the impact velocity and contusion depth of the impactor rod. Animals with an impact velocity error >5% were excluded from further analysis. After injury, individual rats were randomly assigned into a treatment group. The following groups were used: […]
The BBB open field locomotor rating scale: The BBB locomotor rating scale was used to assess general locomotor performance (Basso et al., 1995). The score was assessed before injury and at 1, 3, 5, 7, 14, 21, 35, 42, 49, 56 and 63 days post operation (dpo) by 2 blinded observers.

## CS(=O)(=O)Oc1ccc2c(NC(N)=O)c(C(=O)c3ccc(Cl)cc3Cl)oc2c1 [methanesulfonic acid 2-(2,4-dichloro-benzoyl)-3-ureido-benzofuran-6-yl ester]
[1]; 0.1 μM
  growth area of outgrowing axons, as compared to vehicle-treated cultures: significant increase
[1]; 1 μM
  growth area of outgrowing axons, as compared to vehicle-treated cultures: significant increase
[1]; 1 μM, versus vehicle
  elevation of axonal growth areas (fold): nearly five fold
[2]; 0.1 μM
  Schwann cell expansion (numbers of Schwann cells outside the DRG explant core): significant increase
[2]; 1 μM
  Schwann cell expansion (numbers of Schwann cells outside the DRG explant core): significant increase
[2]; treated cultures versus vehicle-treated cultures, highest at 0.1 μM
  increase of Schwann cell numbers (fold): nearly fivefold
[3]; 10 mg in vehicle, vehicle animals 7.8
  BBB score at steady state: 8.8
[3]; 10 mg, DPO 56, Students T-Test p=0.01
  BBB performance compared to vehicle controls at the end of the experiment: significantly better
